Literature values as cited in patent publication EP1179349B1, “W/O emulsion adjuvant compositions for vaccines” (Lohmann Animal Health GmbH & Co. KG, priority 2000, dated 2002).

Settings: manufacturer's data

CCCCCCCCCCCCCC(=O)OC(C)C [Isopropylmyristat]
Toxizität: Keine toxische Wirkung nachweisbar.
